Paper PMC10650850, “Discovery, Structure–Activity Relationship and In Vitro Anticancer Activity of Small-Molecule Inhibitors of the Protein–Protein Interactions between AF9/ENL and AF4 or DOT1L” (Cancers, 2023)
Counter-ions that a name gives are not always drawn.

Legend:
MV4;11 = experiment: Antiproliferation assay (XTT), MV4;11; type: cell-based; conditions: Homo sapiens, MV4-11, 168 h, 7 days incubation, read-out: Antitumor activity EC50, MV4;11;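 further: EC50 values in Micromolar not Nanomolar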
Procedure: (§1) The antitumor activity of selected compounds was evaluated against the proliferation of a panel of MLL-r leukemia and other cancer cells. MV4;11 and Molm-13 leukemia cells contain MLL-AF4 and MLL-AF9 fusion oncogenes, respectively. NB4 and HL60 are AML cells without MLL translocation. Hela (cervical cancer) is a solid tumor cell line. […] The anti-proliferation activity of these compounds against other AML cells (i.e., NB4 and HL60) might be due to their inhibition of SEC-mediated gene expression (e.g., Myc), as observed in our previous studies.
(§2) Proliferation inhibition assays were performed using an XTT assay kit (Biotium, Fremont, CA, USA) following our previous methods. The antiproliferation EC50 values were determined using Prism 5 and the reported results were the mean values of at least three independent experiments. The incubation time for all compounds was 7 days.

Molm13 = experiment: Antiproliferation assay (XTT), Molm-13; type: cell-based; conditions: Homo sapiens, MOLM-13, 168 h, 7 days incubation, read-out: Antitumor activity EC50, Molm13;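 further: EC50 values in Micromolar not Nanomolar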
Procedure: as §1, §2

HL60 = experiment: Antiproliferation assay (XTT), HL60; type: cell-based; conditions: Homo sapiens, HL-60, 168 h, 7 days incubation, read-out: Antitumor activity EC50, HL60;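 further: EC50 values in Micromolar not Nanomolar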
Procedure: as §1, §2

Hela = experiment: Antiproliferation assay (XTT), Hela; type: cell-based; conditions: Homo sapiens, HeLa, 168 h, 7 days incubation, read-out: Antitumor activity EC50, Hela
Procedure: as §1, §2

NB4 = experiment: Antiproliferation assay (XTT), NB4; type: cell-based; conditions: Homo sapiens, NB-4, 168 h, 7 days incubation, read-out: Antitumor activity EC50, NB4;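 further: EC50 values in Micromolar not Nanomolar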
Procedure: as §1, §2

AF9-DOT1L interaction = target: T1, AF9-DOT1L interaction (Homo sapiens, UniProt P42568); experiment: AlphaLisa assay, AF9-DOT1L interaction; type: binding; conditions: for IC50: MBP-protein 5 nM, biotinylated peptide 40 nM, 3 independent experiments with standard deviation, read-out: IC50 (μM) against the AF9-DOT1L interaction; for inhibition at 5 µM: read-out: % Inhibition at 5 μM against the AF9-DOT1L interaction
T1 construct: human AF9 AHD domain (475–568); made in house; host or cells: E. coli BL21(DE3)
T1 sequence (P42568 475-568): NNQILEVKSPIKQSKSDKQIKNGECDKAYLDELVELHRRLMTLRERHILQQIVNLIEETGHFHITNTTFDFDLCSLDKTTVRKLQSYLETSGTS
Excerpt: An AlphaLisa assay we previously developed was used for compound screening for inhibitors of the AF9-DOT1L interaction. The PPI takes the DOT1L-peptide coated donor beads and AF9 AHD coated acceptor beads together. The donor beads are illuminated with a laser beam (680 nm) to generate singlet oxygen radicals, which activate the adjacent acceptor beads to produce luminescence at 615 nm. When a compound can disrupt such PPI and separate the donor and acceptor beads, the highly unstable radicals are rapidly quenched by water without generating luminescence.
The cDNA for the human AF9 AHD domain (475–568) and ENL AHD domain (489–559) was synthesized (by Genscript, Piscataway, NJ, USA) and inserted into the pMAL c5X expression plasmid. The DOT1L peptide (Biotin-AHX-[…]) and AF4 peptide (Biotin-AHX-[…]) for the Alpha assay were purchased from Genscript.
Alpha assays were developed in our previous publication, using a Perkin-Elmer AlphaLisa anti-MBP kit, which contains streptavidin donor beads and anti-MBP acceptor beads. Briefly, the assay was performed using a MBP-protein (5 nM), a biotinylated peptide (40 nM), and increasing concentrations of a compound in 25 µL buffer (PBS with 0.5% BSA, pH 7.5) in 384-well plates according to the manufacturer’s protocol and measured with a Tecan SPARK microplate reader. Data were imported into Prism (version 5.0), and IC50 values from 3 independent experiments with standard deviation were obtained by using a standard dose-response curve fitting.

Compound	inhibition at 5 µM (AF9-DOT1L interaction; compound at 5 μM)	other results
O=C(NCC1CCNCC1)c1cc2cc(-c3ccc(N4CCCCC4)cc3)ccc2[nH]1 [Compound 15]	–	EC50 (MV4;11): 22 ± 2 µM; EC50 (Molm13): 10 ± 1.6 µM; EC50 (HL60): 50 µM; EC50 (Hela): > 50 µM; EC50 (NB4): > 50 µM; IC50 (AF9-DOT1L interaction): 3.6 ± 0.3 µM
O=C(NCC1CCNCC1)c1c[nH]c2cc(-c3ccc(N4CCCC4)cc3)ccc12 [Compound 12, 6-(4-(Pyrrolidin-1-yl)phenyl)-N-(piperidin-4-ylmethyl)-1H-indole-3-carboxamide hydrochloride]	–	EC50 (MV4;11): 26 ± 1.8 µM; EC50 (Molm13): 50 µM; EC50 (HL60): 50 µM; EC50 (Hela): > 50 µM; EC50 (NB4): 50 µM; IC50 (AF9-DOT1L interaction): 2.9 ± 0.1 µM
O=C(NCC1CCNCC1)c1cc2ccc(-c3ccc(O)cc3)cc2s1 [Compound 46, 6-(4-Hydroxylphenyl)-N-(piperidin-4-ylmethyl)-benzo[b]thiophene-2-carboxamide hydrochloride]	0%	–
NCc1ccc(-c2ccc3c(C(=O)NCC4CCNCC4)c[nH]c3c2)cc1 [Compound 14]	11%	–
COc1ccc(-c2ccc3cc(C(=O)NCC4CCNCC4)sc3c2)cc1 [Compound 45, 6-(4-Methoxylphenyl)-N-(piperidin-4-ylmethyl)-benzo[b]thiophene-2-carboxamide hydrochloride]	43%	–
5-(4-(Tert-butyl)phenyl)-N-(piperidin-4-ylmethyl)-benzo[b]thiophene-2-carboxamide hydrochloride [Compound 55]	–	% Inhibition at 5 μM against the AF9-DOT1L interaction (AF9-DOT1L interaction; compound at 5 μM): 45%
O=C(NCC1CCNCC1)c1cc2ccc(-c3ccc(C(=O)N4CCCCC4)cc3)cc2o1 [Compound 64, 6-(4-((Piperidine-1-yl)carbonyl)phenyl)-N-(piperidin-4-ylmethyl)-benzofuran-2-carboxamide hydrochloride]	0%	–
O=C(NCC1CCNCC1)c1cc2ccc(-c3ccc(Cl)cc3)cc2s1 [Compound 48, 6-(4-Chlorophenyl)-N-(piperidin-4-ylmethyl)-benzo[b]thiophene-2-carboxamide hydrochloride]	~50%	–
O=C(NCC1CCNCC1)c1cc2cc(-c3ccc(C(=O)N4CCCC4)cc3)ccc2s1 [Compound 52]	0%	–
O=C(NCC1CCNCC1)c1cc2ccc(N3CCC(N4CCCCC4)CC3)cc2s1 [Compound 31]	14%	–
O=C(NCC1CCNCC1)c1cc2cc(-c3ccc(N4CCNCC4)cc3)ccc2[nH]1 [Compound 18]	36%	–
O=C(NCC1CCNCC1)c1cc2ccc(-c3ccc(CN4CCCCC4)cc3)cc2s1 [Compound 28, 6-(4-(Piperidin-1-ylmethyl)phenyl)-N-(piperidin-4-ylmethyl)-benzo[b]thiophene-2-carboxamide hydrochloride]	45%	–
Cl.O=C(NCC1CCNCC1)c1cc2ccc(-c3ccc(C(=O)N4CCC(N5CCCC5)CC4)cc3)cc2s1 [Compound 34, 6-(4-(4-(Pyrrolidin-1-yl)piperidin-1-carbonyl)phenyl)-N-(piperidin-4-ylmethyl)-benzo[b]thiophene-2-carboxamide hydrochloride]	5%	Inhibitory activity against the AF9-DOT1L interaction (in words) (AF9-DOT1L interaction): inactive
O=C(NCC1CCNCC1)c1cc2ccc(Oc3ccc(Oc4ccc(Cl)cc4)cc3)cc2o1 [Compound 77, 6-(4-(4-Cholorophenoxyl)phenoxyl)-N-(piperidin-4-ylmethyl)-benzofuran-2-carboxamide hydrochloride]	20%	–
O=C(NCC1CCNCC1)c1cc2ccc(Nc3ccc(OC(F)(F)F)cc3)cc2o1 [Compound 75, 6-((4-Trifuluoromethoxyl)phenyl)amino)-N-(piperidin-4-ylmethyl)-benzofuran-2-carboxamide hydrochloride]	23%	–
O=C(NCC1CCNCC1)c1cc2ccc(-c3ccc(C(=O)N4CCC(N5CCCCC5)CC4)cc3)cc2o1 [Compound 66, 6-(4-((1,4′-Bipiperidine-1-yl)carbonyl)phenyl)-N-(piperidin-4-ylmethyl)-benzofuran-2-carboxamide hydrochloride]	0%	–

Compound	inhibition at 5 µM (AF9-DOT1L interaction; compound at 5 μM)	other results
O=C(NCC1CCNCC1)c1cc2ccc(-c3cccc(-c4ccccc4)c3)cc2o1 [Compound 68, 6-((1,1′-Biphenyl)-3-yl)-N-(piperidin-4-ylmethyl)-benzofuran-2-carboxamide hydrochloride]	33%	–
O=C(NCC1CCNCC1)c1cc2ccc(-c3ccc(N4CCOCC4)cc3)cc2s1 [Compound 26, 6-(4-(Morpholino)phenyl)-N-(piperidin-4-ylmethyl)-benzo[b]thiophene-2-carboxamide hydrochloride]	40%	–
O=C(NCC1CCNCC1)c1cc2ccc(-c3ccc(CCO)cc3)cc2[nH]1 [Compound 7]	5.6%	–
O=C(NCc1ccc(-c2ccc3cc(C(=O)NCC4CCNCC4)oc3c2)cc1)OCc1ccccc1 [Compound 71, 6-(4-(Benzyloxycarbonylaminomethyl)phenyl)-N-(piperidin-4-ylmethyl)-benzofuran-2-carboxamide hydrochloride]	27%	–
Cc1cc(C#N)ccc1-c1ccc2[nH]c(C(=O)NCC3CCNCC3)cc2c1 [Compound 21]	0%	–
CN1CCN(c2ccc(-c3ccc4cc(C(=O)NCC5CCNCC5)oc4c3)cc2)CC1 [Compound 60, 6-(4-(4-Methylpiperazin-1-yl)phenyl)-N-(piperidin-4-ylmethyl)-benzofuran-2-carboxamide hydrochloride]	32%	–
O=C(NCC1CCNCC1)c1cc2ccc(-c3ccc(N4CCNCC4)cc3)cc2o1 [Compound 59, 6-(4-(Piperazin-1-yl)phenyl)-N-(piperidin-4-ylmethyl)-benzofuran-2-carboxamide hydrochloride]	38%	–
O=C(NCC1CCNCC1)c1cc2ccc(Nc3ccc(N4CCCCC4)cc3)cc2s1 [Compound 35, 6-((4-(Piperidin-1-yl)phenyl)amino)-N-(piperidin-4-ylmethyl)-benzo[b]thiophene-2-carboxamide hydrochloride]	–	IC50 (AF9-DOT1L interaction): 2.3 ± 0.2 µM
CC(C)(C)c1cccc(-c2ccc3cc(C(=O)NCC4CCNCC4)[nH]c3c2)c1 [Compound 9, 6-(3-(tert-Butyl)phenyl)-N-(piperidin-4-ylmethyl)-1H-indole-2-carboxamide hydrochloride]	17%	–
O=C(NCC1CCNCC1)c1cc2ccc(-c3ccsc3)cc2[nH]1 [Compound 11]	10%	Inhibitory activity against the AF9-DOT1L interaction (in words) (AF9-DOT1L interaction): almost inactive
COc1ccc(Oc2ccc3cc(C(=O)NCC4CCNCC4)oc3c2)cc1 [Compound 76, 6-(4-Methoxylphenoxyl)-N-(piperidin-4-ylmethyl)-benzofuran-2-carboxamide hydrochloride]	24%	–
O=C(NCC1CCNCC1)c1cc2ccc(-c3ccc(C4CCCCC4)cc3)cc2o1 [Compound 61, 6-(4-Cyclohexylphenyl)-N-(piperidin-4-ylmethyl)-benzofuran-2-carboxamide hydrochloride]	18%	–
O=C(NCC1CCNCC1)c1cc2ccc(-c3ccc4c(c3)OCCO4)cc2o1 [Compound 69, 6-(2,3-Dihydrobenzo[b][1,4]dioxin-6-yl)-N-(piperidin-4-ylmethyl)-benzofuran-2-carboxamide hydrochloride]	33%	–
O=C(NCC1CCNCC1)c1c[nH]c2cc(-c3ccc(N4CCOCC4)cc3)ccc12 [Compound 13, 6-(4-(Morpholinophenyl)-N-(piperidin-4-ylmethyl)-1H-indole-3-carboxamide hydrochloride]	29%	–
O=C(NCC1CCNCC1)c1cc2ccc(-c3ccc(C4CCCCC4)cc3)cc2[nH]1 [Compound 4, 6-(4-Cyclohexylphenyl)-N-(piperidin-4-ylmethyl)-1H-indole-2-carboxamide hydrochloride]	31%	–
